Measured values from patent publication US4500526A, “Cephalosporin derivatives” (Bristol-Myers Company, priority 1983, dated 1985).
≈ marks a conversion by molar mass, not a printed value. Where two headings read alike, the source gives them in different places.

Assays:
[1] = test system: Penicillinsensitive S. aureus (5 strains); assay: MIC, two-fold serial agar dilution, group (G+)-Ia; format: cell-based; details: Staphylococcus aureus, read-out: Geometric Mean of MIC
Experimental: (§1) In the primary evaluation of the compounds of this invention, the Minimum Inhibitory Concentrations (MIC's) of the compounds were determined by the two-fold serial agar dilution method in Mueller-Hinton agar against 32 strains of test organisms in six groups. The sample weights of the test compounds were adjusted according to the purity of each compound, so as to give a more accurate measure of the MIC's.
(G+)Ia: Penicillinsensitive S. aureus (5 strains)

[2] = test system: Penicillinresistant S. aureus (5 strains); assay: MIC, two-fold serial agar dilution, group (G+)-Ib; format: cell-based; details: Staphylococcus aureus, read-out: Geometric Mean of MIC
Experimental: as §1
(G+)Ib: Penicillinresistant S. aureus (5 strains)

[3] = test system: Cephalothinsensitive E. coli (2 strains), Kl. pneumoniae (1 strain) and Pr. mirabilis (2 strains); assay: MIC, two-fold serial agar dilution, group (G-)-Ia; format: cell-based; details: 5 strains, Mueller-Hinton agar, read-out: Geometric Mean of MIC
Experimental: as §1
(G-)Ia: Cephalothinsensitive E. coli (2 strains), Kl. pneumoniae (1
strain) and Pr. mirabilis (2 strains)

[4] = test system: Cephalothinresistant E. coli (3 strains) and Kl. pneumoniae (3 strains); assay: MIC, two-fold serial agar dilution, group (G-)-Ib; format: cell-based; details: Escherichia coli, read-out: Geometric Mean of MIC
Experimental: as §1
(G-)Ib: Cephalothinresistant E. coli (3 strains) and Kl. pneumoniae (3

[5] = test system: M. morganii (1 strain), Ent. cloacae (2 strains) and Ser. marcescens (2 strains); assay: MIC, two-fold serial agar dilution, group (G-)-II; format: cell-based; details: read-out: Geometric Mean of MIC
Experimental: as §1
(G-)II: M. morganii (1 strain), Ent. cloacae (2 strains) and Ser.

[6] = test system: Ps. aeruginosa (6 strains); assay: MIC, two-fold serial agar dilution, group (G-)-III; format: cell-based; details: Pseudomonas aeruginosa, read-out: Geometric Mean of MIC
Experimental: as §1
(G-)III: Ps. aeruginosa (6 strains)

[7] = Mouse blood levels after single intramuscular injection; format: in vivo, mice
Experimental: The absorption of some of the preferred compounds were determined in mice following a single intramuscular injection of the test compound (dissolved in 0.1M phosphate buffer; pH 7) at a dosage of 20 mg/kg. Blood samples were collected from the orbital sinuses into heparinized capillary tubes and assayed in Nutrient Agar (pH 6.6) using E. coli Ess-22-31 as the test organism. The blood levels at various time intervals, the half-life values (t1/2) and the areas under the curve (AUC) are shown in Table 2.

E. coli Juhl = assay: Median protective dose in infected mice; format: in vivo; details: Escherichia coli, im, immediately after intraperitoneal challenge, read-out: PD50
Experimental: (§2) The median protective dose (PD50) of some of the preferred compounds against various microorganisms was determined in mice by intramuscular administration of the test compound immediately after an intraperitoneal bacterial challenge.

P. aeruginosa A9843 = assay: Median protective dose in infected mice; format: in vivo; details: Pseudomonas aeruginosa, im, immediately after intraperitoneal challenge, read-out: PD50
Experimental: as §2

S. aureus Smith = assay: Median protective dose in infected mice; format: in vivo; details: Staphylococcus aureus, im, immediately after intraperitoneal challenge, read-out: PD50
Experimental: as §2

[8] = (G+)-Ia, 5 strains, Mueller-Hinton agar
[9] = (G+)-Ib, 5 strains, Mueller-Hinton agar
[10] = (G-)-III, 6 strains, Mueller-Hinton agar
[11] = (G-)-II, 5 strains, Mueller-Hinton agar

SMILES	MIC [1, 8] [µg/mL]	MIC [2, 9] [µg/mL]	MIC [3] [µg/mL]	MIC [4] [µg/mL]	MIC [5] [µg/mL]	MIC [6, 10] [µg/mL]	AUC ([7]; in vivo, im, 20 mg/kg) [ng·h/mL]	concentration at 10 min ([7]; in vivo, im, 20 mg/kg) [ng/mL]	concentration at 20 min ([7]; in vivo, im, 20 mg/kg) [ng/mL]	concentration at 0.5 h ([7]; in vivo, im, 20 mg/kg) [ng/mL]	concentration at 40 min ([7]; in vivo, im, 20 mg/kg) [ng/mL]	concentration at 50 min ([7]; in vivo, im, 20 mg/kg) [ng/mL]	concentration at 1 h ([7]; in vivo, im, 20 mg/kg) [ng/mL]	concentration at 1.5 h ([7]; in vivo, im, 20 mg/kg) [ng/mL]	concentration at 2 h ([7]; in vivo, im, 20 mg/kg) [ng/mL]	half-life ([7]; in vivo, im, 20 mg/kg) [min]	ED50 (E. coli Juhl) [mg/kg]	ED50 (S. aureus Smith) [mg/kg]	MIC [5, 11] [µg/mL]	also measured
CCO/N=C(\C(=O)NC1C(=O)N2C(C(=O)[O-])=C(C[n+]3ccc4scnc4c3)CSC12)c1csc(N)n1 (stereo not shown) [Ib, 7-[(Z)-2-(2-Aminothiazol-4-yl)-2-ethoxyiminoacetamido]-3-{(5-thiazolo[4,5-c]pyridino)methyl}-3-cephem-4-carboxylate]	0.42 (≈ 0.77 µM)	0.96 (≈ 1.76 µM)	0.035 (≈ 0.0641 µM)	0.22 (≈ 0.403 µM)	0.32 (≈ 0.586 µM)	2.6 (≈ 4.77 µM)	8400	15000	22000	8400	6100	3800	920	680	430	19				
C=CCO/N=C(\C(=O)NC1C(=O)N2C(C(=O)[O-])=C(C[n+]3ccc4scnc4c3)CSC12)c1csc(N)n1 (stereo not shown) [Ic, 7-[(Z)-2-Allyloxyimino-2-(2-aminothiazol-4-yl)acetamido]-3-{(5-thiazolo[4,5-c]pyridino)methyl}-3-cephem-4-carboxylate]	0.32 (≈ 0.574 µM)	0.56 (≈ 1 µM)	0.053 (≈ 0.095 µM)	0.44 (≈ 0.789 µM)	0.66 (≈ 1.18 µM)	3.9 (≈ 6.99 µM)	12000	18000	14000	10000	8200	5800	3600	1900	1300	28	0.048	1.1		ED50 (P. aeruginosa A9843): 8.6 mg/kg
C#CCO/N=C(\C(=O)NC1C(=O)N2C(C(=O)[O-])=C(C[n+]3ccc4sc(N)nc4c3)CS[C@H]12)c1csc(N)n1 (stereo partly shown) [If, 7-[(Z)-2-(2-Aminothiazol-4-yl)-2-(propargyloxyimino)acetamido]-3-(2-amino-5-thiazolo[4,5-c]pyridinio)methyl-3-cephem-4-carboxylate]	0.3 (≈ 0.526 µM)		0.029 (≈ 0.0508 µM)	0.4 (≈ 0.701 µM)		2.1 (≈ 3.68 µM)	9100	14000	11000	7300	4200	3600	3300	2000	1200	34	0.013	0.36	0.35 (≈ 0.613 µM)	MIC [2]: 0.8 µg/mL (≈ 1.4 µM); ED50 (P. aeruginosa A9843): 3.3 mg/kg
Nc1nc(/C(=N/OCC(=O)O)C(=O)NC2C(=O)N3C(C(=O)[O-])=C(C[n+]4ccc5sc(N)nc5c4)CS[C@H]23)cs1 (stereo partly shown) [Ig, 7-[(Z)-2-(2-Aminothiazol-4-yl)-2-(carboxymethoxyimino)acetamido]-3-(2-amino-5-thiazolo[4,5-c]pyridinio)methyl-3-cephem-4-carboxylate]	2.1 (≈ 3.56 µM)		0.0072 (≈ 0.0122 µM)	0.3 (≈ 0.508 µM)	0.1 (≈ 0.169 µM)		15000	21000	17000	15000	10000	7600	6300	1900	840	22				MIC [2]: 3.6 µg/mL (≈ 6.1 µM); MIC [6]: 1.8 µg/mL (≈ 3.05 µM)
CO/N=C(\C(=O)NC1C(=O)N2C(C(=O)[O-])=C(C[n+]3ccc4sc(C)nc4c3)CSC12)c1csc(N)n1 (stereo not shown) [Ih, 7-[(Z)-2-(2-Aminothiazol-4-yl)-2-methoxyiminoacetamido]-3-[{5-(2-methylthiazolo[4,5-c]pyridinio)}methyl]-3-cephem-4-carboxylate]	0.34 (≈ 0.623 µM)	0.78 (≈ 1.43 µM)	0.007 (≈ 0.0128 µM)	0.058 (≈ 0.106 µM)	0.11 (≈ 0.202 µM)	2.3 (≈ 4.22 µM)	8600	16000	10000	6900	5900	4100	3000	790	130	16				
CO/N=C(\C(=O)NC1C(=O)N2C(C(=O)[O-])=C(C[n+]3ccc4sc(SC)nc4c3)CSC12)c1csc(N)n1 (stereo not shown) [Ii, 7-[(Z)-2-(2-Aminothiazol-4-yl)-2-methoxyiminoacetamido]-3-[{5-(2-methylthiothiazolo[4,5-c]pyridinio)}methyl]-3-cephem-4-carboxylate]	0.23 (≈ 0.398 µM)		0.025 (≈ 0.0433 µM)	0.13 (≈ 0.225 µM)			6800	14000	10000	5900	4800	2400	1500	250	< 100	13			0.24 (≈ 0.415 µM)	MIC [2]: 0.2 µg/mL (≈ 0.346 µM); MIC [6]: 5.5 µg/mL (≈ 9.52 µM)
CCO/N=C(\C(=O)NC1C(=O)N2C(C(=O)[O-])=C(C[n+]3ccc4sc(N)nc4c3)CSC12)c1csc(N)n1 (stereo not shown) [Ij, 7-[(Z)-2-(2-Aminothiazol-4-yl)-2-ethoxyiminoacetamido]-3-[{5-(2-aminothiazolo[4,5-c]pyridinio)}methyl]-3-cephem-4-carboxylate]	0.36 (≈ 0.642 µM)	0.48 (≈ 0.856 µM)	0.02 (≈ 0.0357 µM)	0.17 (≈ 0.303 µM)		3 (≈ 5.35 µM)													0.24 (≈ 0.428 µM)	
Nc1nc(/C(=N/OC2(C(=O)O)CCC2)C(=O)NC2C(=O)N3C(C(=O)[O-])=C(C[n+]4ccc5sc(N)nc5c4)CS[C@H]23)cs1 (stereo partly shown) [Ik, 7-[(Z)-2-(2-Aminothiazol-4-yl)-2-(1-carboxycyclobut-1-oxyimino)-acetamido]-3-(2-amino-5-thiazolo[4,5-c]pyridinio)methyl-3-cephem-4-carboxylate]	1.4 (≈ 2.22 µM)	3.3 (≈ 5.23 µM)	0.015 (≈ 0.0238 µM)	0.36 (≈ 0.571 µM)		1.4 (≈ 2.22 µM)		20000	16000	11000	8200	5200	4100	1800	670	22	0.046	3	0.27 (≈ 0.428 µM)	AUC ([7]; blood, mice, 20 mg/kg im, read-out: AUC): 13000 ng·h/mL; ED50 (P. aeruginosa A9843): 5.5 mg/kg
CC(C)(O/N=C(\C(=O)NC1C(=O)N2C(C(=O)[O-])=C(C[n+]3ccc4sc(N)nc4c3)CSC12)c1csc(N)n1)C(=O)O (stereo not shown) [Io, 7-[(Z)-2-(2-Aminothiazol-4-yl)-2-(2-carboxyprop-2-oxyimino)-acetamido]-3-[{5-(2-aminothiazolo[4,5-c]pyridinio)}methyl]-3-cephem-4-carboxylate]		3.8 (≈ 6.14 µM)	0.023 (≈ 0.0372 µM)	0.47 (≈ 0.76 µM)		1.5 (≈ 2.42 µM)													0.66 (≈ 1.07 µM)	MIC [1]: 1.6 µg/mL (≈ 2.59 µM)
CNC(=O)Nc1nc2c[n+](CC3=C(C(=O)[O-])N4C(=O)C(NC(=O)/C(=N\OC)c5csc(N)n5)[C@H]4SC3)ccc2s1 (stereo partly shown) [Ir, 7-[(Z)-2-(2-Aminothiazol-4-yl)-2-methoxyiminoacetamido]-3-[2-(3-methylureido)-5-thiazolo[4,5-c]pyridinio]methyl-3-cephem-4-carboxylate]		0.8 (≈ 1.33 µM)	0.025 (≈ 0.0414 µM)	0.46 (≈ 0.762 µM)		5.2 (≈ 8.61 µM)													0.52 (≈ 0.861 µM)	MIC [1]: 0.4 µg/mL (≈ 0.663 µM)
CO/N=C(\C(=O)NC1C(=O)N2C(C(=O)[O-])=C(C[n+]3ccc4sc(C(N)=O)nc4c3)CS[C@H]12)c1csc(N)n1 (stereo partly shown) [Ix, 7-[(Z)-2-(2-Aminothiazol-4-yl)-2-methoxyiminoacetamido]-3-(2-carbamoyl-5-thiazolo[4,5-c]pyridinio)methyl-3-cephem-4-carboxylate]	0.53 (≈ 0.922 µM)	0.8 (≈ 1.39 µM)	0.022 (≈ 0.0383 µM)	0.2 (≈ 0.348 µM)		2.8 (≈ 4.87 µM)	19000	20000	18000	20000	13000	11000	7000	4200	2100	31	0.013	1.5	0.39 (≈ 0.679 µM)	
